Earlier results on 1 compound are cited in paper PMC6832551, “An Antiviral Peptide from Alopecosa nagpag Spider Targets NS2B–NS3 Protease of Flaviviruses” (Toxins, 2019).

Where a name gives a salt, the structure may show the parent alone.

For the data set, the system named is ZIKV. The source says: Despite their differences in pathogeneses, DENV and ZIKV are representative, emerging mosquito-borne flaviviruses with similar replication cycles which infect millions of people annually. The non-structural proteins of flaviviruses are important for virus replication and assembly. It has been established that NS2B–NS3 forms the viral protease and NS3 alone serves as the dsRNA helicase. Recently, the NS2B–NS3 protease became an attractive antiviral target, and many of its inhibitors have been reported as potential antivirals. Protease inhibitors are ubiquito ...

As for `CC(C)C[C@H]1C(=O)N2CCC[C@H]2[C@]2(O)O[C@](NC(=O)[C@@H]3C=C4c5cccc6[nH]c(Br)c(c56)C[C@H]4N(C)C3)(C(C)C)C(=O)N12` [bromocriptine, Bromocriptine mesylate], the “ZIKV viral replication (in words)” value was “confirmed to inhibit ZIKV protease activity and viral replication”.
